We go through 19 molecules from patent US7834023B2 (Portola Pharmaceuticals, Inc., priority 2006, dated 2010).

The target of one test is T1, P2Y12 receptor (Homo sapiens, UniProt Q9H244).
T1 construct: endogenous in cells; host or cells: human platelets (outdated from blood banks or fresh), apyrase-washed, whole
As to the kind of experiment: platelet ADP receptor binding assay (ARB): inhibition of [3H]2-MeS-ADP binding to platelets. The settings on record: [3H]2-MeS-ADP binding to apyrase-washed human platelets. The method, boiled down: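 Apyrase-washed human platelets (1×10^8 per well) were preincubated 5 min with serial compound dilutions in Hepes-Tyrode's/0.1% BSA/0.6% DMSO, then incubated 15 min at room temperature with 1 nM [3H]2-MeS-ADP. Filter-bound radioactivity gave specific binding (nonspecific: 10 μM 2-MeS-ADP), and IC50s came from non-linear regression.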

Test [1] deals with human platelet-rich plasma (PRP). The test is described as follows: PRP assay: inhibition of ADP-mediated platelet aggregation in vitro. The conditions noted are these: Homo sapiens, Platelet, ADP-induced aggregation. The class given is cell-based. Here is the method:
The effect of testing the compound according to the invention on ADP-induced human platelet aggregation was assessed in a 96-well microtiter assay (see generally the procedures in Jantzen, H. M. et al. (1999) Thromb. Hemost. 81:111-117) or standard cuvette light transmittance aggregometry using either human platelet-rich plasma (PRP) or human washed platelets.
For preparation of human platelet-rich plasma for aggregation assays, human venous blood was collected from healthy, drug-free volunteers into 0.38% sodium citrate (0.013 M, pH 7.0 final). Platelet-rich plasma (PRP) is prepared by centrifugation of whole blood at 160×g for 20 minutes at room temperature. The PRP layer is removed, transferred to a new tube, and the platelet count is adjusted, if necessary, to achieve a platelet concentration of ˜3×10^8 platelets/ml using platelet-poor plasma (PPP). PPP is prepared by centrifugation of the remaining blood sample (after removal of PRP) for 20 minutes at 800×g. This preparation of PRP can subsequently be used for aggregation assays in either a 96-well plate or standard cuvette aggregometry.
For cuvette light transmittance aggregation assays, serial dilutions (1:3) of test compounds were prepared in 100% DMSO in a 96 well V-bottom plate (final DMSO concentration in the cuvette was 0.6%). The test compound (3 μl of serial dilutions in DMSO) was preincubated with PRP for 30-45 seconds prior to initiation of aggregation reactions, which were performed in a ChronoLog aggregometer by addition of agonist (5 or 10 μM ADP) to 490 μL of PRP at 37° C. In some cases, light transmittance aggregometry was performed using 490 μL of washed platelets (prepared as described above) at 37° C., and aggregation was initiated by addition of 5 μM ADP and 0.5 mg/ml human fibrinogen (American Diagnostics, Inc., Greenwich, Conn.). The aggregation reaction is recorded for ˜5 min, and maximum extent of aggregation is determined by the difference in extent of aggregation at baseline, compared to the maximum aggregation that occurs during the five minute period of the assay. Inhibition of aggregation was calculated as the maximum aggregation observed in the presence of inhibitor, compared to that in the absence of inhibitor. IC50s were derived by non-linear regression analysis using the Prism software (GraphPad, San Diego, Calif.).
Inhibition of ADP-dependent aggregation was also determined in 96-well flat-bottom microtiter plates using a microtiter plate shaker and plate reader similar to the procedure described by Frantantoni et al., Am. J. Clin. Pathol. 94, 613 (1990). All steps are performed at room temperature. For 96-well plate aggregation using platelet-rich plasma (PRP), the total reaction volume of 0.2 ml/well includes 180 μl of PRP (˜3×10^8 platelets/ml, see above), 6 μl of either serial dilution of test compounds in 20% DMSO or buffer (for control wells), and 10 μl of 20×ADP agonist solution (100 μM). The OD of the samples is then determined at 450 nm using a microtiter plate reader (Softmax, Molecular Devices, Menlo Park, Calif.) resulting in the 0 minute reading. The plates are then agitated for 5 min on a microtiter plate shaker and the 5 minute reading is obtained in the plate reader. Aggregation is calculated from the decrease of OD at 450 nm at t=5 minutes compared to t=0 minutes and is expressed as % of the decrease in the ADP control samples after correcting for changes in the unaggregated control samples. IC50s were derived by non-linear regression analysis.

T1 sequence (Q9H244 whole entry): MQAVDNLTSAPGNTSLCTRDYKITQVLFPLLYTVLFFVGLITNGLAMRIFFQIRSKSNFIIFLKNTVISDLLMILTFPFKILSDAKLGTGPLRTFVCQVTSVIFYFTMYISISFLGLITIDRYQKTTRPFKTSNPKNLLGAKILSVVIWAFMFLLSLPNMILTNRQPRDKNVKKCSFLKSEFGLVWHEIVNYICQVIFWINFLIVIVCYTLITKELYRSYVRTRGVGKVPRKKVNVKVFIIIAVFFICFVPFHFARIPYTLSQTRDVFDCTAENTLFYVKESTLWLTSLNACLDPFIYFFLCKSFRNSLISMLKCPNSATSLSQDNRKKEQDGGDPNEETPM

As to `CNc1cc2[nH]c(=O)n(-c3ccc(C(=O)NC(c4noc(=S)[nH]4)c4ccc(Cl)s4)cc3)c(=O)c2cc1F` (centres unmarked) [Compound 32, N-((5-chlorothiophen-2-yl)(5-thioxo-4,5-dihydro-1,2,4-oxadiazol-3-yl)methyl)-4-(6-fluoro-7-(methylamino)-2,4-dioxo-1,2-dihydroquinazolin-3(4H)-yl)benzamide], the half-maximal inhibitory concentration (IC50) is 50 to 500 nM on P2Y12 receptor and less than 10000 nM in test [1].

In the case of `CNc1cc2[nH]c(=O)n(-c3ccc(C(=O)NC(C(=O)OCCN4CCOCC4)c4ccc(Cl)s4)cc3)c(=O)c2cc1F` (centres unmarked) [Compound 35, 2-morpholinoethyl 2-(5-chlorothiophen-2-yl)-2-(4-(6-fluoro-7-(methylamino)-2,4-dioxo-1,2-dihydroquinazolin-3(4H)-yl)benzamido)acetate], the half-maximal inhibitory concentration (IC50) at P2Y12 receptor was 50 to 500 nM; in test [1], 10000 to 30000 nM.

`CNc1cc2[nH]c(=O)n(-c3ccc(C(=O)NC(C(=O)O)c4ccc(Cl)s4)c(C)c3)c(=O)c2cc1F` (centres unmarked) [Compound 41, 2-(5-chlorothiophen-2-yl)-2-(4-(6-fluoro-7-(methylamino)-2,4-dioxo-1,2-dihydroquinazolin-3(4H)-yl)-2-methylbenzamido)acetic acid]: the figures for the IC50 (at P2Y12 receptor; in test [1]) were 50 to 500 nM and 10000 to 30000 nM, respectively.

For `CNc1cc2[nH]c(=O)n(-c3ccc(C(=O)NC(C(=O)O)c4ccc(Cl)s4)c(F)c3)c(=O)c2cc1F` (centres unmarked) [Compound 44, 2-(5-chlorothiophen-2-yl)-2-(2-fluoro-4-(6-fluoro-7-(methylamino)-2,4-dioxo-1,2-dihydroquinazolin-3(4H)-yl)benzamido)acetic acid], the IC50 on P2Y12 receptor lay in the range of 50 to 500 nM; in test [1] it was 10000 to 30000 nM.

For the molecule `CNc1cc2[nH]c(=O)n(-c3ccc(C(=O)N[C@@H](c4noc(=O)[nH]4)c4ccc(Cl)s4)cc3)c(=O)c2cc1F` [Compound 45, (S)-N-((5-chlorothiophen-2-yl)(5-oxo-4,5-dihydro-1,2,4-oxadiazol-3-yl)methyl)-4-(6-fluoro-7-(methylamino)-2,4-dioxo-1,2-dihydroquinazolin-3(4H)-yl)benzamide], the half-maximal inhibitory concentration (IC50) on P2Y12 receptor is less than 50 nM; in test [1], less than 10000 nM.

Take `CNc1cc2[nH]c(=O)n(-c3ccc(C(=O)N[C@H](c4noc(=O)[nH]4)c4ccc(Cl)s4)cc3)c(=O)c2cc1F` [Compound 46, (R)-N-((5-chlorothiophen-2-yl)(5-oxo-4,5-dihydro-1,2,4-oxadiazol-3-yl)methyl)-4-(6-fluoro-7-(methylamino)-2,4-dioxo-1,2-dihydroquinazolin-3(4H)-yl)benzamide]: the concentration for half-maximal inhibition (IC50) at P2Y12 receptor is 50 to 500 nM; in test [1], 10000 to 30000 nM.

Regarding `CNc1cc2[nH]c(=O)n(-c3ccc(C(=O)NC(C(N)=O)c4ccc(Cl)s4)cc3)c(=O)c2cc1F` (centres unmarked) [Compound 47, N-(2-amino-1-(5-chlorothiophen-2-yl)-2-oxoethyl)-4-(6-fluoro-7-(methylamino)-2,4-dioxo-1,2-dihydroquinazolin-3(4H)-yl)benzamide], the half-inhibitory concentration (IC50) on P2Y12 receptor was 50 to 500 nM; in test [1], less than 10000 nM.

As to `CNc1cc2c(=O)n(-c3ccc(C(=O)NC(c4noc(=O)[nH]4)c4ccc(Cl)s4)cc3)c(=O)[nH]c2cc1F` (centres unmarked) [Compound 50, N-((5-chlorothiophen-2-yl)(5-oxo-4,5-dihydro-1,2,4-oxadiazol-3-yl)methyl)-4-(7-fluoro-6-(methylamino)-2,4-dioxo-1,2-dihydroquinazolin-3(4H)-yl)benzamide], the concentration for half-maximal inhibition (IC50) is 50 to 500 nM at P2Y12 receptor and greater than 30000 nM in test [1].

As for `CNc1cc2[nH]c(=O)n(-c3ccc(C(=O)NC(c4noc(=O)[nH]4)c4ccc(Cl)s4)cc3OC)c(=O)c2cc1F` (centres unmarked) [Compound 53, N-((5-chlorothiophen-2-yl)(5-oxo-4,5-dihydro-1,2,4-oxadiazol-3-yl)methyl)-4-(6-fluoro-7-(methylamino)-2,4-dioxo-1,2-dihydroquinazolin-3(4H)-yl)-3-methoxybenzamide], the IC50 was 50 to 500 nM at P2Y12 receptor and greater than 30000 nM in test [1].

Turning to `CNc1cc2c(cc1F)C(=O)N(c1ccc(C(=O)NC(c3nnn[nH]3)c3ccc(Cl)s3)cc1)CO2` (centres unmarked) [Compound 54, N-((5-chlorothiophen-2-yl)(1H-tetrazol-5-yl)methyl)-4-(6-fluoro-7-(methylamino)-4-oxo-2H-benzo[e][1,3]oxazin-3(4H)-yl)benzamide], the IC50 is less than 50 nM on P2Y12 receptor and 10000 to 30000 nM in test [1].

As for `CNc1cc2c(cc1F)C(=O)N(c1ccc(C(=O)N(CC(=O)O)Cc3ccc(Cl)s3)cc1)CO2` [Compound 55], the IC50 was 50 to 500 nM at P2Y12 receptor and greater than 30000 nM in test [1].

On to `CNc1cc2c(cc1F)C(=O)N(c1ccc(C(=O)NC(C(=O)O)c3ccc(Cl)s3)cc1)CO2` (centres unmarked) [Compound 56, 2-(5-chlorothiophen-2-yl)-2-(4-(6-fluoro-7-(methylamino)-4-oxo-2H-benzo[e][1,3]oxazin-3(4H)-yl)benzamido)acetic acid], for which the figures for the IC50 (at P2Y12 receptor; in test [1]) were less than 50 nM and 10000 to 30000 nM, respectively.

Take `CNc1cc2c(cc1F)C(=O)N(c1ccc(C(=O)NC(c3nnn[nH]3)c3ccc(C)s3)cc1)CO2` (centres unmarked) [Compound 61, 4-(6-fluoro-7-(methylamino)-4-oxo-2H-benzo[e][1,3]oxazin-3(4H)-yl)-N-((5-methylthiophen-2-yl)(1H-tetrazol-5-yl)methyl)benzamide]: the IC50 at P2Y12 receptor was less than 50 nM; in test [1], 10000 to 30000 nM.

Turning to `CNc1cc2c(cc1F)C(=O)N(c1ccc(C(=O)N[C@@H](C(=O)O)c3ccc(Cl)s3)cc1)CO2` [Compound 62, (S)-2-(5-chlorothiophen-2-yl)-2-(4-(6-fluoro-7-(methylamino)-4-oxo-2H-benzo[e][1,3]oxazin-3(4H)-yl)benzaamido)acetic acid], the concentration for half-maximal inhibition (IC50) was less than 50 nM at P2Y12 receptor and greater than 30000 nM in test [1].

Consider `CNc1cc2c(cc1F)C(=O)N(c1ccc(C(=O)NC(C(N)=O)c3ccc(Cl)s3)cc1)CO2` (centres unmarked) [Compound 70], for which the IC50 lay in the range of 50 to 500 nM on P2Y12 receptor and 10000 to 30000 nM in test [1].

For `CNc1cc2c(cc1F)C(=O)N(c1ccc(C(=O)NC(c3noc(=O)[nH]3)c3ccc(Cl)s3)cc1)CO2` (centres unmarked) [Compound 71, N-((5-chlorothiophen-2-yl)(5-oxo-4,5-dihydro-1,2,4-oxadiazol-3-yl)methyl)-4-(6-fluoro-7-(methylamino)-4-oxo-2H-benzo[e][1,3]oxazin-3(4H)-yl)benzamide], the IC50 is less than 50 nM on P2Y12 receptor and 10000 to 30000 nM in test [1].

Consider `CNc1cc2c(cc1F)C(=O)N(c1ccc(C(=O)NC(c3nnn(C)n3)c3ccc(Cl)s3)cc1)CO2` (centres unmarked) [Compound 74, N-((5-chlorothiophen-2-yl)(2-methyl-2H-tetrazol-5-yl)methyl)-4-(6-fluoro-7-(methylamino)-4-oxo-2H-benzo[e][1,3]oxazin-3(4H)-yl)benzamide], for which the half-inhibitory concentration (IC50) at P2Y12 receptor was 50 to 500 nM; in test [1] it was greater than 30000 nM.

In the case of `CNc1cc2c(cc1F)C(=O)N(c1ccc(C(=O)NC(c3noc(=S)[nH]3)c3ccc(Cl)s3)cc1)CO2` (centres unmarked) [Compound 75, N-((5-chlorothiophen-2-yl)(5-thioxo-4,5-dihydro-1,2,4-oxadiazol-3-yl)methyl)-4-(6-fluoro-7-(methylamino)-4-oxo-2H-benzo[e][1,3]oxazin-3(4H)-yl)benzamide], the results for the IC50 (on P2Y12 receptor; in test [1]) were less than 50 nM and 10000 to 30000 nM, respectively.

As for `CNc1cc2c(cc1F)C(=O)N(c1ccc(C(=O)NC(CC(=O)O)c3ccc(Cl)s3)cc1)CO2` (centres unmarked) [Compound 79, 3-(5-chlorothiophen-2-yl)-3-(4-(6-fluoro-7-(methylamino)-4-oxo-2H-benzo[e][1,3]oxazin-3(4H)-yl)benzamido)propanoic acid], the concentration for half-maximal inhibition (IC50) is 50 to 500 nM on P2Y12 receptor and less than 10000 nM in test [1].

The IC50 is the concentration that inhibits the measured activity by half. Low values mean inhibition by little substance, high ones a need for much substance.
